Measured values taken from patent US20100184699A1, “Peptide Derived From Prostate-Related Protein As Cancer Vaccine Candidate For Prostate Cancer Patient Who Is Positive For Hla-A3 Super-Type Allele Molecule” (priority 2005, published 2010).

Test system: peptide-specific IgG in plasma of prostate cancer patients and healthy donors
Test: Detection of peptide-specific IgG in plasma by ELISA
Format: binding, human
Settings: for IgG reactive to peptide in plasma: 1:100-diluted plasma
[1] = Prostate cancer patient 12, A11
[2] = Prostate cancer patient 14, A33
[3] = Prostate cancer patient 17, A33
[4] = Prostate cancer patient 19, A33
[5] = Prostate cancer patient 20, A33

“PAP 18-28 (FLFLLFFWLDR; UniProt P15309 18-28, looked up, fragment)” was tested, and the “IgG reactive to peptide in plasma” value (Healthy donor 12, A31) was “+ (IgG reactive to a corresponding peptide was judged to be positive when a difference of the optical density (OD) in a 1:100-diluted plasma was more than 100)”, the “IgG reactive to peptide in plasma, Total (positive/tested)” value (“IgG reactive … (positive/tested)” for short) (Healthy donors) was 1/9 and the “IgG reactive … (positive/tested)” value (Prostate cancer patients) was 0/20.
For “LYLPFRNCPR (PAP 154-163) [PAP-derived peptide]”, the “IgG reactive … (positive/tested)” value (Healthy donors) was 0/9, the “IgG reactive to peptide in plasma” value (Prostate cancer patient 9, A11) was “+ (IgG reactive to a corresponding peptide was judged to be positive when a difference of the optical density (OD) in a 1:100-diluted plasma was more than 100)” and the “IgG reactive to peptide in plasma” value (Prostate cancer patient 10, A11) was “+ (IgG reactive to a corresponding peptide was judged to be positive when a difference of the optical density (OD) in a 1:100-diluted plasma was more than 100)”. The “IgG reactive to peptide in plasma” value (Prostate cancer patient 16, A33) was “+ (IgG reactive to a corresponding peptide was judged to be positive when a difference of the optical density (OD) in a 1:100-diluted plasma was more than 100)” and the “IgG reactive … (positive/tested)” value (Prostate cancer patients) was 3/20.
In the case of “YPANEYAYRR (PSMA 272-281) [PSMA-derived peptide]”, the “IgG reactive … (positive/tested)” value (Healthy donors) is reported as 0/9, the “IgG reactive to peptide in plasma” value (Prostate cancer patient 2, A31) is reported as “+ (IgG reactive to a corresponding peptide was judged to be positive when a difference of the optical density (OD) in a 1:100-diluted plasma was more than 100)” and the “IgG reactive to peptide in plasma” value (Prostate cancer patient 4, A31) is reported as “+ (IgG reactive to a corresponding peptide was judged to be positive when a difference of the optical density (OD) in a 1:100-diluted plasma was more than 100)”. The “IgG reactive to peptide in plasma” value (Prostate cancer patient 6, A31) was “+ (IgG reactive to a corresponding peptide was judged to be positive when a difference of the optical density (OD) in a 1:100-diluted plasma was more than 100)”, the “IgG reactive to peptide in plasma” value (Prostate cancer patient 9, A11) was “+ (IgG reactive to a corresponding peptide was judged to be positive when a difference of the optical density (OD) in a 1:100-diluted plasma was more than 100)” and the “IgG reactive to peptide in plasma” value [1] was “+ (IgG reactive to a corresponding peptide was judged to be positive when a difference of the optical density (OD) in a 1:100-diluted plasma was more than 100)”. For the same substance, the “IgG reactive to peptide in plasma” value [2] was “+ (IgG reactive to a corresponding peptide was judged to be positive when a difference of the optical density (OD) in a 1:100-diluted plasma was more than 100)”, the “IgG reactive to peptide in plasma” value [3] was “+ (IgG reactive to a corresponding peptide was judged to be positive when a difference of the optical density (OD) in a 1:100-diluted plasma was more than 100)” and the “IgG reactive to peptide in plasma” value [4] was “+ (IgG reactive to a corresponding peptide was judged to be positive when a difference of the optical density (OD) in a 1:100-diluted plasma was more than 100)”. For the same substance, the “IgG reactive … (positive/tested)” value (Prostate cancer patients) was 8/20.
PSMA 370-378 (RYVILGGHR; PSMA 370-378) was tested, and the “IgG reactive … (positive/tested)” value (Healthy donors) was 0/9, the “IgG reactive to peptide in plasma” value (Prostate cancer patient 5, A31) was “+ (IgG reactive to a corresponding peptide was judged to be positive when a difference of the optical density (OD) in a 1:100-diluted plasma was more than 100)” and the “IgG reactive to peptide in plasma” value [5] was “+ (IgG reactive to a corresponding peptide was judged to be positive when a difference of the optical density (OD) in a 1:100-diluted plasma was more than 100)”. The “IgG reactive … (positive/tested)” value (Prostate cancer patients) was 2/20.
With FLLFFWLDR [PAP 20-28] the “IgG reactive … (positive/tested)” value (Healthy donors) was 0/9, the “IgG reactive to peptide in plasma” value [2] was “+ (IgG reactive to a corresponding peptide was judged to be positive when a difference of the optical density (OD) in a 1:100-diluted plasma was more than 100)” and the “IgG reactive … (positive/tested)” value (Prostate cancer patients) was 1/20.
In the case of PSMA 590-698, the “IgG reactive … (positive/tested)” value (Healthy donors) is reported as 0/9, the “IgG reactive to peptide in plasma” value (Prostate cancer patient 4, A31) is reported as “+ (IgG reactive to a corresponding peptide was judged to be positive when a difference of the optical density (OD) in a 1:100-diluted plasma was more than 100)” and the “IgG reactive to peptide in plasma” value (Prostate cancer patient 5, A31) is reported as “+ (IgG reactive to a corresponding peptide was judged to be positive when a difference of the optical density (OD) in a 1:100-diluted plasma was more than 100)”. The “IgG reactive to peptide in plasma” value (Prostate cancer patient 6, A31) was “+ (IgG reactive to a corresponding peptide was judged to be positive when a difference of the optical density (OD) in a 1:100-diluted plasma was more than 100)”, the “IgG reactive to peptide in plasma” value (Prostate cancer patient 8, A11) was “+ (IgG reactive to a corresponding peptide was judged to be positive when a difference of the optical density (OD) in a 1:100-diluted plasma was more than 100)” and the “IgG reactive to peptide in plasma” value (Prostate cancer patient 9, A11) was “+ (IgG reactive to a corresponding peptide was judged to be positive when a difference of the optical density (OD) in a 1:100-diluted plasma was more than 100)”. For the same substance, the “IgG reactive to peptide in plasma” value [1] was “+ (IgG reactive to a corresponding peptide was judged to be positive when a difference of the optical density (OD) in a 1:100-diluted plasma was more than 100)”, the “IgG reactive to peptide in plasma” value (Prostate cancer patient 13, A11) was “+ (IgG reactive to a corresponding peptide was judged to be positive when a difference of the optical density (OD) in a 1:100-diluted plasma was more than 100)” and the “IgG reactive to peptide in plasma” value [2] was “+ (IgG reactive to a corresponding peptide was judged to be positive when a difference of the optical density (OD) in a 1:100-diluted plasma was more than 100)”. The “IgG reactive to peptide in plasma” value [3] was “+ (IgG reactive to a corresponding peptide was judged to be positive when a difference of the optical density (OD) in a 1:100-diluted plasma was more than 100)”, the “IgG reactive to peptide in plasma” value [4] was “+ (IgG reactive to a corresponding peptide was judged to be positive when a difference of the optical density (OD) in a 1:100-diluted plasma was more than 100)” and the “IgG reactive to peptide in plasma” value [5] was “+ (IgG reactive to a corresponding peptide was judged to be positive when a difference of the optical density (OD) in a 1:100-diluted plasma was more than 100)”. The “IgG reactive … (positive/tested)” value (Prostate cancer patients) was 11/20.
RIYNVIGTLR [PSMA 354-363] was tested, and the “IgG reactive … (positive/tested)” value (Healthy donors) was 0/9, the “IgG reactive to peptide in plasma” value (Prostate cancer patient 6, A31) was “+ (IgG reactive to a corresponding peptide was judged to be positive when a difference of the optical density (OD) in a 1:100-diluted plasma was more than 100)” and the “IgG reactive to peptide in plasma” value [5] was “+ (IgG reactive to a corresponding peptide was judged to be positive when a difference of the optical density (OD) in a 1:100-diluted plasma was more than 100)”. For the same substance, the “IgG reactive … (positive/tested)” value (Prostate cancer patients) was 2/20.
